These results are taken from patent publication US12686680B2, “Substituted pyrazolo[1,5-α]pyrimidines as CRF receptor antagonists” (Neurocrine Biosciences, Inc., priority 2019, dated 2026).

In series [1] the target is T1, CRF1 receptor (Homo sapiens, UniProt P34998).
T1 sequence (P34998 24-415): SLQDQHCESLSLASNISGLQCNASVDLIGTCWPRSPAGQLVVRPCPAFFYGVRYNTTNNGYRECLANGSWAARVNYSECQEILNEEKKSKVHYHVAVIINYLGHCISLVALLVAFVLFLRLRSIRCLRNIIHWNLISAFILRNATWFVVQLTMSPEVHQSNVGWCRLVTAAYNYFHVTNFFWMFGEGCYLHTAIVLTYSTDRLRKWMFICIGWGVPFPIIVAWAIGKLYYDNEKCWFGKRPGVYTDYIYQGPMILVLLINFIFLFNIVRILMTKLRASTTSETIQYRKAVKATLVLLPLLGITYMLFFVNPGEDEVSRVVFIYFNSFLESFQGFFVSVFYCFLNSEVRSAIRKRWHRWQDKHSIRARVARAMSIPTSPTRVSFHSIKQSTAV
The experiment in a line: CRF1 receptor binding kinetics (association/dissociation rate constants, method of Fleck et al.). The note with it: for Ki: Ki=k−1/k1, read-out: Kinetic Ki; for k1: association rate constant; for k^−1: dissociation rate constant. The procedure: The association (k1) and dissociation (k−1) rate constants defining binding of the Compounds to the CRF1 receptor were determined by the method described in Fleck et al. (J. Pharmacology and Experimental Therapeutics, 341(2):518-531, 2012) (hereinafter “Fleck et al.” and incorporated by reference in its entirety). As described therein, the activity of a CRF1 receptor antagonist can be expressed as the kinetically derived affinity (Ki) calculated from the association (k1) and dissociation (k−1) rate constants by the following equation: Ki=k−1/k1
The Compounds listed in Table 5 were evaluated according to these procedures, and the kinetic Ki was determined and found to be as follows: […]

Series [2] can be described thus: pKa determination, SiriusT3 UV-metric and pH-metric co-solvent titration. The settings on record: water:CH3OH co-solvent mixtures. The series is classed as physicochemical. The procedure:
The pKa was determined using a SiriusT3 (Serial: T317136) with a UV-metric co-solvent titration assay and a pH-metric co-solvent titration assay. For the UV-metric, 10 mM sample was prepared in DMSO with phosphate buffer and placed on the instrument along with a blank prepared with the same composition, absent compound. For pH-metric, an appropriate weight of sample was added to a glass vial to meet buffer capacity requirements, absent of diluent. For each test, pKa was measured in three water:CH3OH ratios. The reported pKas are extrapolated graphically via the Yasuda-Shedlovsky method.

Series [3] concerns ADX rats. The experiment in a line: Lowering of ACTH in adrenalectomized rats. The note with it: oral, 10 mg/kg single dose, n=11/group. The series is classed as in vivo.

On to `CCCN(Cc1ccc(-c2csc(N(C)C)n2)cc1)c1cc(C)nc2c(-c3cnc(N(C)C)cc3C)c(C)nn12` [Compound 1, 5-{7-[({4-[2-(dimethylamino)-1,3-thiazol-4-yl]phenyl}methyl)(propyl)amino]-2,5-dimethylpyrazolo[1,5-a]pyrimidin-3-yl}-N,N,4-trimethylpyridin-2-amine], for which, in series [1], the Ki is less than 0.22 nM, the k1 is recorded as 4.9 ± 1.7 10^6M^−1min^−1 and the “k^−1” value was less than 0.001 min⁻¹. Moreover, the pKa in series [2] (UV-metric method, Yasuda-Shedlovsky extrapolation from water:CH3OH) was 4.07 ± 0.06. For the same compound, the pKa in series [2] (overall, two methods) was approximately 4.1. In addition, the pKa in series [2] (pH-metric method, Yasuda-Shedlovsky extrapolation from water:CH3OH) was 4.06 ± 0.08. Also, in series [3], the “duration of lowering of plasma ACTH levels” value is on record as “up to 5 hours” and the “plasma ACTH levels” value is recorded as “significantly lowered”.
Regarding `CCCN(Cc1ccc(-c2cccnc2)cc1)c1cc(C)nc2c(-c3cnc(N(C)C)cc3C)c(C)nn12` [Compound 2, 5-{2,5-dimethyl-7-[propyl({[4-(pyridin-3-yl)phenyl]methyl})amino]pyrazolo[1,5-a]pyrimidin-3-yl}-N,N,4-trimethylpyridin-2-amine], in series [1], the Ki was less than 0.19 nM, the k1 is listed as 5.3 ± 0.78 10^6M^−1min^−1 and the “k^−1” value is less than 0.001 min⁻¹.
The corresponding values for `CCCN(Cc1ccc(-c2ccccn2)cc1)c1cc(C)nc2c(-c3cnc(N(C)C)cc3C)c(C)nn12` [Compound 3, 5-{2,5-dimethyl-7-[propyl({[4-(pyridin-2-yl)phenyl]methyl})amino]pyrazolo[1,5-a]pyrimidin-3-yl}-N,N,4-trimethylpyridin-2-amine] are less than 0.36 nM, 2.9 ± 0.92 10^6M^−1min^−1 and less than 0.001 min⁻¹.
The corresponding values for `CCCN(Cc1ccc(-c2ccccc2)cc1)c1cc(C)nc2c(-c3cnc(N(C)C)cc3C)c(C)nn12` [Compound 8, 5-(2,5-dimethyl-7-{[(4-phenylphenyl)methyl](propyl)amino}pyrazolo[1,5-a]pyrimidin-3-yl)-N,N,4-trimethylpyridin-2-amine] are less than 0.12 nM, 9.1 ± 4.1 10^6M^−1min^−1 and less than 0.001 min⁻¹.
Taken in the same sequence, the figures for `CCCN(Cc1ccc(-n2cccn2)cc1)c1cc(C)nc2c(-c3cnc(N(C)C)cc3C)c(C)nn12` [Compound 9, 5-{2,5-dimethyl-7-[propyl({[4-(1H-pyrazol-1-yl)phenyl]methyl})amino]pyrazolo[1,5-a]pyrimidin-3-yl}-N,N,4-trimethylpyridin-2-amine] were less than 0.29 nM, 3.5 ± 1.1 10^6M^−1min^−1 and less than 0.001 min⁻¹.
As to `CCCN(Cc1ccc(-n2cncn2)cc1)c1cc(C)nc2c(-c3cnc(N(C)C)cc3C)c(C)nn12` [Compound 10, 5-{2,5-dimethyl-7-[propyl({[4-(1H-1,2,4-triazol-1-yl)phenyl]methyl})amino]pyrazolo[1,5-a]pyrimidin-3-yl}-N,N,4-trimethylpyridin-2-amine], in series [1], the Ki was determined as 0.95 nM, the k1 is listed as 2.2 10^6M^−1min^−1 and the “k^−1” value was determined as 0.0021 min⁻¹.
Taken in the same sequence, the figures for `CCCN(Cc1ccc(-c2csc(NC)n2)cc1)c1cc(C)nc2c(-c3cnc(N(C)C)cc3C)c(C)nn12` [Compound 11, 5-{2,5-dimethyl-7-[({4-[2-(methylamino)-1,3-thiazol-4-yl]phenyl}methyl)(propyl)amino]pyrazolo[1,5-a]pyrimidin-3-yl}-N,N,4-trimethylpyridin-2-amine] were 0.72 nM, 2.4 +/− 0.2 10^6M^−1min^−1 and 0.0017 min⁻¹.

The term Ki denotes a dissociation constant, usually derived from enzyme kinetics or from competition with a known ligand. The term pKa denotes the pH at which an ionisable group is half protonated.
